In US20250042912A1, “NOVEL NON-FLUORINATED QUINOLONE COMPOUND AND USE THEREOF” (priority 2021, published 2025):
In brackets after ≈: the same amount, converted by molar mass.

How the values were obtained:
[1] = system: Staphylococcus epidermidis ATCC 35983; assay: Minimum inhibitory concentration (MIC) assay, Staphylococcus epidermidis ATCC 35983; format: cell-based; conditions: ATCC35983, aerobic culture 35+/-2°C, 16 to 20 hours, read with naked eyes
Experimental: (§1) On the day of the experiment, the compound in the flask was dissolved in 100% DMSO until the concentration of mother liquor was 0.4 mg/mL. If the mother liquor was not used on the same day, it was stored at −80° C. for future use.
(§2) The compound mother liquor and standard antibiotics were subjected to 2-fold gradient dilution with corresponding solvents on a 96-microwell plate (V-bottom) to obtain 100× working solutions (Well 1 to Well 7) in sequence. Among them, the concentrations of the compound were 400 μg/mL, 200 μg/mL, 100 μg/mL, 50 μg/mL, 25 μg/mL, 12.5 μg/mL, 6.25 μg/mL, and 3.125 μg/mL. 100% DMSO was used as growth control (Well 8). As such, the compound motherplate was obtained.
(§3) One day before the experiment, aerobic bacteria (Staphylococcus epidermidis) stored in a cryogenic tube at −80° C. were scribed on an MHA (Cation-adjusted Mueller-Hinton agar) plate. The aerobic bacteria were placed in a 35+/−2° C. incubator for 18-24 hours of aerobic cultivation.
(§4) On the day of the experiment, the plate was taken out, clones were picked from the plate and suspended in physiological saline. Then, the turbidity of the bacterial suspension (containing 1.0-2.0×10^8 CFU/mL) was adjusted to OD600=0.2 by a turbidity meter. Then, the adjusted bacterial suspension was diluted to an appropriate concentration with the assay culture medium: about 5×10^5 CFU/mL for aerobic bacteria, and about 1×10^6 CFU/mL for anaerobic bacteria. As such, the inoculating solution was obtained.
(§5) 2 μl of 2-fold series dilution of 100× high-concentration working solution was transferred from a compound mother plate (prepared in step 1) to a round-bottom 96-well plate, and then 198 μL of bacterial inoculating solution (prepared in step 2) was added to each well to obtain an MIC assay plate. Therefore, the final assay concentrations of the compound were 4 μg/mL, 2 μg/mL, 1 μg/mL, 0.5 μg/mL, 0.25 μg/mL, 0.125 μg/mL, 0.06 μg/mL and 0.03 μg/mL. The total volume of each well on the assay plate was 200 μL: containing 1% DMSO, about 5×10^5 CFU/mL of aerobic bacteria and about 1×10^6 CFU/mL of anaerobic bacteria.
(§6) All assay plates for aerobic bacteria were aerobically cultured at 35+/−2° C. for 16 to 20 hours, and all assay plates for anaerobic bacteria were anaerobically cultured in an anaerobic incubator at 35+/−2° C. for 48 hours.

[2] = system: Propionibacterium acnes ATCC 6919; assay: Acne model in mice: ear bacterial load; format: in vivo
Experimental: Experimental strain: Propionibacterium acnes ATCC 6919 (Beijing Biobw Biotechnology Co., Ltd.) Experimental animals: Balb/C mice (Zhejiang Vital River Laboratory Animal Technology Co., Ltd.) Balb/C mice were grouped and numbered, and adaptively fed for one week. On the day of modeling, Propionibacterium acnes was taken, and OD600 was measured using a microplate reader. BH1 culture medium was diluted to OD600=1 (about 5×10^8 CFU/mL), centrifuged to discard supernatant, and the remaining culture was diluted to 1×10^8 CFU/mL with PBS. Once the molding began, the mice were anesthetized with a small animal anesthesia machine, the air flow and isoflurane content of the anesthesia machine were adjusted, and the mice were placed in an anesthesia induction chamber for anesthesia induction. After there were no obvious signs of activity, the mice were taken out and their toes were clamped with tweezers or hemostatic forceps for toe pinching reaction testing, if there was no retraction pain response, the surgery could be performed. The anesthetized mice were placed on a mice plate and fixed, the air flow or isoflurane content was adjusted to maintain anesthesia (isoflurane anesthesia induction content of 3% to 4%, anesthesia maintenance content of 1% to 2%, and air flow rate of 300 mL/min to 500 mL/min). […]

[3] = system: Staphylococcus epidermidis ATCC 35984; assay: Minimum inhibitory concentration (MIC) assay, Staphylococcus epidermidis ATCC 35984; format: cell-based; conditions: ATCC35984, aerobic culture 35+/-2°C, 16 to 20 hours, read with naked eyes
Experimental: as §1, §2, §3, §4, §5, §6

MIC [1]: 0.06 µg/mL (≈ 0.153 µM)
MIC [3]: 0.06 µg/mL (≈ 0.153 µM)
SMILES: CN(C)c1cc2c(cn1)-c1ccc3c(=O)c(C(=O)O)cn(C4CC4)c3c1COC2 [Compound 6]
Ear bacterial load Log10 CFU/Ear Mean ± SD ([2]; Balb/C mice, left ear homogenate, 48 hours after injection of Propionibacterium acnes, 15 μL applied at 4, 20, 28, 44 hours, drugs as hydrochloride): 5.53 ± 0.10 Log10 CFU/Ear
bacterial loads in the left ears of mice after treatment ([2]; compared with acne model group, p<0.001, in words): significantly decreased
